Laboratory results: US12281138B2, “5′-cap-trinucleotide- or higher oligonucleotide compounds and their use in stabilizing RNA, expressing proteins in therapy” (BioNTech RNA Pharmaceuticals GmbH, priority 2018, dated 2025)

Legend:
[1] = tested on: human immature dendritic cells (hiDCs); experiment: Luciferase reporter mRNA translation in human immature dendritic cells; assay type: cell-based; details: co-transcriptionally capped Luciferase mRNA, 700 ng per well, liposome formulated, recorded over 72 h
Procedure: As a functional assay of cap analog incorporation, and as a test of translatability of the resulting cap structure, differently capped mRNA encoding a Luciferase reporter was transfected into human immature dendritic cells (hiDCs). For that, 700 ng capped RNA per well were formulated with liposomes as described in Kranz et al., Nature 534, 396-401 (2016), and added to a 96-well containing 5E04 hiDCs. Subsequently, reporter activity was recorded over 72 h.

[2] = tested on: Balb/c mice; experiment: Luciferase mRNA expression in vivo, bioluminescence imaging after intravenous application; details: 10 μg RNA per mouse, i.v.

Substance	translation in hiDCs (luciferase reporter activity) relative to mRNA capped with the corresponding D1 or D2 diastereomer of beta-S-ARCA [1]	in vivo luciferase protein levels compared to all cap0 RNAs ([2]; all time points)	in vivo luciferase protein levels compared to enzymatically capped cap1 mRNA ([2]; at the other time points)
m2^7,2′-OGppSpm^2′-OGpG [Compound 1 (D1)]	comparable levels		
m2^7,2′-OGppSpm^2′-OGpG [Compound 1]		always higher levels	only slightly lower levels
